Measurements taken from patent US20200368312A1 (priority 2017, published 2020).
Converted amounts (≈) assume the structure as drawn. Where two headings read alike, the source gives them in different places.

Legend:
Format in all cases: cell-based
Staphylococcus aureus = test: microbe, parasite or virus in culture; settings: for MIC: Staphylococcus aureus, read-out: MIC
Enterococci = tested on: Enterococci
Streptococci = test: Broth microdilution MIC, Streptococci (Example 11, Table 7)
Clostridium difficile = test: Broth microdilution MIC, C. difficile, anaerobic, supplemented Brucella Broth (Example 11, Table 7); settings: C. difficile MMX 4381 ATCC 700057, toxinAB-negative
S. epidermidis (CoNS) = test: Broth microdilution MIC, S. epidermidis (CoNS) (Table 7)
S. lugdenensis (CoNS) = test: Broth microdilution MIC, S. lugdenensis (CoNS) (Table 7); settings: S. lugdenensis (CoNS) MMX 8724
S. haemolyticus (CoNS) = test: Broth microdilution MIC, S. haemolyticus (CoNS) (Table 7); settings: S. haemolyticus (CoNS) MMX 529 ATCC 29970
S. hominis (CoNS) = test: Broth microdilution MIC, S. hominis (CoNS) (Table 7); settings: S. hominis (CoNS) MMX 667 ATCC 27844
C. perfringens = tested on: C. perfringens
P. micros = test: Broth microdilution MIC, P. micros (Table 7); settings: P. micros MMX 3546
P. anaerobius = test: Broth microdilution MIC, P. anaerobius (Table 7); settings: P. anaerobius MMX 1208 ATCC 27337
P. acnes = test: Broth microdilution MIC, P. acnes (Table 7)
[1] = ATCC 29213 / MSSA, S. aureus MMX 100 ATCC 29213, MSSA (quality control)
[2] = ATCC 33591 / MRSA, S. aureus MMX 5717 ATCC 33591, MRSA
[3] = ATCC BAA-1556 / MRSA, S. aureus MMX 4675 ATCC BAA-1556, MRSA
[4] = ATCC BAA-1756 / MRSA, S. aureus MMX 2011 ATCC BAA-1756, MRSA
[5] = VISA, S. aureus MMX 1723, Mu50, VISA
[6] = VISA, S. aureus MMX 2124, VISA, DaptoNS
[7] = E. faecalis MMX 101 ATCC 29212, VSE
[8] = S. anginosus (AGS) MMX 1201 ATCC 33397
[9] = S. pneumoniae MMX 1195 ATCC 49619, PISP
[10] = S. epidermidis (CoNS) MMX 762, MRSE
[11] = S. epidermidis (CoNS) MMX 5145, MRSE

SMILES: CC(=O)NC[C@H]1CN(c2ccc(N3CCOCC3)c(F)c2)C(=O)O1 [Linezolid]
- RV40 activity as compared to Comparator (Staphylococcus aureus; MRSA strains (Table 5), […]): 214 ×
- MIC (Staphylococcus aureus; [1]): 4 µg/mL (≈ 11.9 µM)
- MIC (Staphylococcus aureus; [2]): 1 µg/mL (≈ 2.96 µM)
- MIC (Staphylococcus aureus; [3]): 1.5 µg/mL (≈ 4.45 µM)
- MIC (Staphylococcus aureus; [4]): 2 µg/mL (≈ 5.93 µM)
- MIC (Staphylococcus aureus; MRSA, S. aureus MMX 2010, MRSA): 3 µg/mL (≈ 8.89 µM)
- MIC (Staphylococcus aureus; MRSA, S. aureus MMX 3982, MRSA): 3 µg/mL (≈ 8.89 µM)
- MIC (Staphylococcus aureus; MRSA, S. aureus MMX 5985, MRSA): 2.5 µg/mL (≈ 7.41 µM)
- MIC (Staphylococcus aureus; MRSA, S. aureus MMX 5999, MRSA): 1.5 µg/mL (≈ 4.45 µM)
- MIC (Staphylococcus aureus; MRSA, S. aureus MMX 7899, MRSA): 1.5 µg/mL (≈ 4.45 µM)
- MIC (Staphylococcus aureus; MRSA, S. aureus MMX 7900, MRSA): 2 µg/mL (≈ 5.93 µM)
- MIC (Staphylococcus aureus; MRSA, S. aureus MMX 7901, MRSA): 2 µg/mL (≈ 5.93 µM)
- MIC (Staphylococcus aureus; MRSA, S. aureus MMX 7902, MRSA): 2 µg/mL (≈ 5.93 µM)
- MIC (Staphylococcus aureus; MRSA, S. aureus MMX 7903, MRSA): 1.5 µg/mL (≈ 4.45 µM)
- MIC (Staphylococcus aureus; MSSA, S. aureus MMX 2490, MSSA): 1.5 µg/mL (≈ 4.45 µM)
- MIC (Staphylococcus aureus; MSSA, S. aureus MMX 7907, MSSA): 3 µg/mL (≈ 8.89 µM)
- MIC (Staphylococcus aureus; MSSA, S. aureus MMX 7908, MSSA): 2 µg/mL (≈ 5.93 µM)
- MIC (Staphylococcus aureus; S. aureus MMX 4665, hVISA): 1.5 µg/mL (≈ 4.45 µM)
- MIC (Staphylococcus aureus; S. aureus MMX 5989, Mu3, hVISA): 1.5 µg/mL (≈ 4.45 µM)
- MIC (Staphylococcus aureus; [5]): 1.25 µg/mL (≈ 3.71 µM)
- MIC (Staphylococcus aureus; [6]): 1.5 µg/mL (≈ 4.45 µM)
- MIC (Staphylococcus aureus; VISA, S. aureus MMX 4658, VISA): 1.5 µg/mL (≈ 4.45 µM)
- MIC (Staphylococcus aureus; VISA, S. aureus MMX 4660, VISA): 2.5 µg/mL (≈ 7.41 µM)
- MIC (Enterococci; [7]): 2 µg/mL (≈ 5.93 µM)
- MIC (Enterococci; E. faecalis MMX 1086, VanA VRE): 2 µg/mL (≈ 5.93 µM)
- MIC (Enterococci; E. faecalis MMX 4176): 4 µg/mL (≈ 11.9 µM)
- MIC (Enterococci; E. faecium MMX 173, VanB VRE): 4 µg/mL (≈ 11.9 µM)
- MIC (Enterococci; E. faecium MMX 851, VanA VRE): 2 µg/mL (≈ 5.93 µM)
- MIC (Enterococci; E. faecium MMX 4204): 2 µg/mL (≈ 5.93 µM)
- MIC (Streptococci; S. agalactiae MMX 4088): 1 µg/mL (≈ 2.96 µM)
- MIC (Streptococci; S. agalactiae MMX 4115, erm^R): 1 µg/mL (≈ 2.96 µM)
- MIC (Streptococci; [8]): 0.5 µg/mL (≈ 1.48 µM)
- MIC (Streptococci; S. constellatus (AGS) MMX 5677): 0.5 µg/mL (≈ 1.48 µM)
- MIC (Streptococci; S. dysgalactiae MMX 5121): 1 µg/mL (≈ 2.96 µM)
- MIC (Streptococci; S. dysgalactiae MMX 5123): 1 µg/mL (≈ 2.96 µM)
- MIC (Streptococci; S. dysgalactiae MMX 5124): 1 µg/mL (≈ 2.96 µM)
- MIC (Streptococci; S. mitis (MGS) MMX 5798): 0.5 µg/mL (≈ 1.48 µM)
- MIC (Streptococci; S. oralis (MGS) MMX 5821): 1 µg/mL (≈ 2.96 µM)
- MIC (Streptococci; S. pneumoniae MMX 432, PRSP): 1 µg/mL (≈ 2.96 µM)
- MIC (Streptococci; S. pneumoniae MMX 747): 1 µg/mL (≈ 2.96 µM)
- MIC (Streptococci; [9]): 1 µg/mL (≈ 2.96 µM)
- MIC (Streptococci; S. pyogenes MMX 404 ATCC 19615): 2 µg/mL (≈ 5.93 µM)
- MIC (Streptococci; S. pyogenes MMX 946, ermR): 1 µg/mL (≈ 2.96 µM)
- MIC (Streptococci; S. pyogenes MMX 8778): 1 µg/mL (≈ 2.96 µM)
- MIC (Clostridium difficile): 1 µg/mL (≈ 2.96 µM)
- MIC (S. epidermidis (CoNS); [10]): 2 µg/mL (≈ 5.93 µM)
- MIC (S. epidermidis (CoNS); [11]): 0.5 µg/mL (≈ 1.48 µM)
- MIC (S. lugdenensis (CoNS)): 0.5 µg/mL (≈ 1.48 µM)
- MIC (S. haemolyticus (CoNS)): 0.5 µg/mL (≈ 1.48 µM)
- MIC (S. hominis (CoNS)): 1 µg/mL (≈ 2.96 µM)

SMILES: CN[C@H](CC(C)C)C(=O)N[C@H]1C(=O)N[C@@H](CC(N)=O)C(=O)N[C@H]2C(=O)N[C@H]3C(=O)N[C@H](C(=O)N[C@H](C(=O)O)c4cc(O)cc(O)c4-c4cc3ccc4O)[C@H](O[C@H]3C[C@](C)(N)[C@@H](O)[C@H](C)O3)c3ccc(c(Cl)c3)Oc3cc2cc(c3O[C@@H]2O[C@H](CO)[C@@H](O)[C@H](O)[C@H]2O[C@H]2C[C@](C)(NCc3ccc(-c4ccc(Cl)cc4)cc3)[C@@H](O)[C@H](C)O2)Oc2ccc(cc2Cl)[C@H]1O [Oritavancin]
- RV40 activity as compared to Comparator (Staphylococcus aureus): 17 ×
- MIC (Staphylococcus aureus; [1]): 0.03 µg/mL (≈ 0.0167 µM)
- MIC (Staphylococcus aureus; [2]): 0.12 µg/mL (≈ 0.0669 µM)
- MIC (Staphylococcus aureus; [3]): 0.06 µg/mL (≈ 0.0335 µM)
- MIC (Staphylococcus aureus; [4]): 0.03 µg/mL (≈ 0.0167 µM)
- MIC (Staphylococcus aureus; MRSA, S. aureus MMX 2010, MRSA): 0.06 µg/mL (≈ 0.0335 µM)
- MIC (Staphylococcus aureus; MRSA, S. aureus MMX 3982, MRSA): 0.12 µg/mL (≈ 0.0669 µM)
- MIC (Staphylococcus aureus; MRSA, S. aureus MMX 5985, MRSA): 0.03 µg/mL (≈ 0.0167 µM)
- MIC (Staphylococcus aureus; MRSA, S. aureus MMX 5999, MRSA): 0.12 µg/mL (≈ 0.0669 µM)
- MIC (Staphylococcus aureus; MRSA, S. aureus MMX 7899, MRSA): 0.12 µg/mL (≈ 0.0669 µM)
- MIC (Staphylococcus aureus; MRSA, S. aureus MMX 7900, MRSA): 0.12 µg/mL (≈ 0.0669 µM)
- MIC (Staphylococcus aureus; MRSA, S. aureus MMX 7901, MRSA): 0.5 µg/mL (≈ 0.279 µM)
- MIC (Staphylococcus aureus; MRSA, S. aureus MMX 7902, MRSA): 0.5 µg/mL (≈ 0.279 µM)
- MIC (Staphylococcus aureus; MRSA, S. aureus MMX 7903, MRSA): 0.06 µg/mL (≈ 0.0335 µM)
- MIC (Staphylococcus aureus; MSSA, S. aureus MMX 2490, MSSA): 0.025 µg/mL (≈ 0.0139 µM)
- MIC (Staphylococcus aureus; MSSA, S. aureus MMX 7907, MSSA): 0.06 µg/mL (≈ 0.0335 µM)
- MIC (Staphylococcus aureus; MSSA, S. aureus MMX 7908, MSSA): 0.06 µg/mL (≈ 0.0335 µM)
- MIC (Staphylococcus aureus; S. aureus MMX 4665, hVISA): 0.5 µg/mL (≈ 0.279 µM)
- MIC (Staphylococcus aureus; S. aureus MMX 5989, Mu3, hVISA): 0.12 µg/mL (≈ 0.0669 µM)
- MIC (Staphylococcus aureus; [5]): 1 µg/mL (≈ 0.558 µM)
- MIC (Staphylococcus aureus; [6]): 1 µg/mL (≈ 0.558 µM)
- MIC (Staphylococcus aureus; VISA, S. aureus MMX 4658, VISA): 0.25 µg/mL (≈ 0.139 µM)
- MIC (Staphylococcus aureus; VISA, S. aureus MMX 4660, VISA): 1 µg/mL (≈ 0.558 µM)
- MIC (Enterococci; [7]): ≤ 0.008 µg/mL
- MIC (Enterococci; E. faecalis MMX 1086, VanA VRE): 1 µg/mL (≈ 0.558 µM)
- MIC (Enterococci; E. faecalis MMX 4176): 0.03 µg/mL (≈ 0.0167 µM)
- MIC (Enterococci; E. faecium MMX 173, VanB VRE): ≤ 0.008 µg/mL
- MIC (Enterococci; E. faecium MMX 851, VanA VRE): 0.12 µg/mL (≈ 0.0669 µM)
- MIC (Enterococci; E. faecium MMX 4204): 0.015 µg/mL (≈ 0.00837 µM)
- MIC (Streptococci; S. agalactiae MMX 427 ATCC 13813): 1 µg/mL (≈ 0.558 µM)
- MIC (Streptococci; S. agalactiae MMX 4088): 0.12 µg/mL (≈ 0.0669 µM)
- MIC (Streptococci; S. agalactiae MMX 4115, erm^R): 0.25 µg/mL (≈ 0.139 µM)
- MIC (Streptococci; [8]): 0.5 µg/mL (≈ 0.279 µM)
- MIC (Streptococci; S. constellatus (AGS) MMX 5677): ≤ 0.008 µg/mL
- MIC (Streptococci; S. dysgalactiae MMX 5121): 0.05 µg/mL (≈ 0.0279 µM)
- MIC (Streptococci; S. dysgalactiae MMX 5123): 2 µg/mL (≈ 1.12 µM)
- MIC (Streptococci; S. dysgalactiae MMX 5124): 1 µg/mL (≈ 0.558 µM)
- MIC (Streptococci; S. mitis (MGS) MMX 1205 ATCC 49456): 0.03 µg/mL (≈ 0.0167 µM)
- MIC (Streptococci; S. mitis (MGS) MMX 5798): 0.25 µg/mL (≈ 0.139 µM)
- MIC (Streptococci; S. oralis (MGS) MMX 5821): ≤ 0.008 µg/mL
- MIC (Streptococci; S. pneumoniae MMX 432, PRSP): ≤ 0.008 µg/mL
- MIC (Streptococci; S. pneumoniae MMX 747): ≤ 0.008 µg/mL
- MIC (Streptococci; [9]): ≤ 0.008 µg/mL
- MIC (Streptococci; S. pyogenes MMX 404 ATCC 19615): 2 µg/mL (≈ 1.12 µM)
- MIC (Streptococci; S. pyogenes MMX 946, ermR): 0.25 µg/mL (≈ 0.139 µM)
- MIC (Streptococci; S. pyogenes MMX 8778): 1 µg/mL (≈ 0.558 µM)
- MIC (S. epidermidis (CoNS); [10]): 0.25 µg/mL (≈ 0.139 µM)
- MIC (S. epidermidis (CoNS); [11]): 0.12 µg/mL (≈ 0.0669 µM)
- MIC (S. lugdenensis (CoNS)): ≤ 0.008 µg/mL
- MIC (S. haemolyticus (CoNS)): 0.12 µg/mL (≈ 0.0669 µM)
- MIC (S. hominis (CoNS)): 0.06 µg/mL (≈ 0.0335 µM)
- MIC (C. perfringens): 0.015 µg/mL (≈ 0.00837 µM)
- MIC (P. micros): 0.03 µg/mL (≈ 0.0167 µM)
- MIC (P. anaerobius): 0.03 µg/mL (≈ 0.0167 µM)
- MIC (P. acnes; P. acnes MMX 7942 ATCC 6919): ≤ 0.008 µg/mL
- MIC (P. acnes; P. acnes MMX 7946 ATCC 11827): ≤ 0.008 µg/mL
